Source: PubChem BioAssay AID2305 (GlaxoSmithKline (GSK), 2010)
pIC50: −log10 of the molar value.

These compounds were tested on P. falciparum 3D7 growth, pLDH absorbance (assay: blood-stage malaria parasite growth potency – strain 3D7, dose response (AID 2305)).

Point of comparison: `COc1cccc(-c2cc(C(=O)Nc3cc(Oc4ccc(O)cc4)cc([N+](=O)[O-])c3)on2)c1`, pIC50 5.98. Against it:
- COc1ccc(Nc2nccc(NCCNC(=O)Nc3cc(C)ccc3C)n2)cc1 — the same, 5.98
- CCc1cc2c(=O)c(-c3nc(C)cs3)c(N)oc2c(CN2CCCCC2)c1O — 0.20 log units higher, 6.18
- COc1cc(Cc2cnc(N)nc2N)ccc1OCc1ccc(-c2ccccc2C#N)cc1 — within 0.2 log units, 6.03
- CC1CCCCN1Cc1cccc(-c2c[nH]c3nc(NC4CCCC4)ncc23)c1 (centres undefined) — within 0.2 log units, 5.88
- Cc1noc(C)c1C(=O)N1CCc2cc3nccc(N4CCN5CCC[C@H]5C4)c3cc21 — within 0.2 log units, 6.06
- Cc1ccc(Nc2ccnc3cc(-c4nccs4)ccc23)cc1C(O)c1ccccc1 (centres undefined) — within 0.2 log units, 6.13
- O=C(N[C@H]1CCN(Cc2ccc(OCCN3CCCC3)c3ccccc23)C1)c1ccc(Cl)c(Cl)c1 — within 0.2 log units, 6.12
- CCCN(CC)CCOC(=O)c1ccccc1 — within 0.2 log units, 6.13
- O=C(CSc1n[nH]c(=O)n1Cc1ccccc1)Nc1ccccc1-c1ccccc1 — within 0.2 log units, 6.02
- CC(=O)Nc1ncc(C(=O)Nc2cccc(-c3ccc(-c4nc5ccc(C(F)(F)F)cc5[nH]4)cc3)c2)s1 — 0.25 log units higher, 6.23
- Cc1ccc(-c2ccc3c(c2)C=C(C(=O)NC2CCN(CCNC(=O)c4cccs4)CC2)CCC3)cc1 — 0.66 log units higher, 6.64
- COc1cc2nc(N3CC(C)N(C(=O)Cc4ccc(-c5ccccc5)cc4)C(C)C3)nc(N)c2cc1OC (centres undefined) — within 0.2 log units, 6.10
- c1cncc(CCNCc2ccc(-c3ccc(CNC4Cc5ccccc5C4)cc3)cc2)c1 — within 0.2 log units, 5.96
- Cc1ccc(Cc2cccc3nc(N)nc(N)c23)cc1 — within 0.2 log units, 5.94
- CCc1cccc2c(C#N)cn(CC(=O)NCCc3ccccc3)c12 — within 0.2 log units, 6.05
- CCN(CC)CCn1c(=N)n(CC(=O)c2ccc(-c3ccccc3)cc2)c2ccccc21 — within 0.2 log units, 5.94
- Cc1ccc(-n2nc(-c3ccccc3)c3cc(C(=O)NCCN)sc32)cc1 — within 0.2 log units, 5.86
- COc1ccc(N2CCN(CCCCNC(=O)c3ccc(NC(=O)c4cccc(Cl)c4)cc3)CC2)c(OC)c1 — within 0.2 log units, 6.04
- CCCc1nc2c(N3CCCN(C(=O)NC4CCCCC4)CC3)cccc2n1Cc1ccccn1 — within 0.2 log units, 5.94
- Cc1cc(N[C@@H](Cc2ccccc2)C(=O)NCc2cccs2)nc(NCCc2cccnc2)n1 — within 0.2 log units, 6.00
- COc1cccc(CNC(=O)c2cc(CNCc3ccccc3)ccc2-c2cccc(CNCc3ccc(-c4ccccc4)cc3)c2)c1 — within 0.2 log units, 6.07
- Clc1ccc(OCc2ccccc2)c(Cc2ccc(-c3nc4ccncc4[nH]3)o2)c1 — within 0.2 log units, 6.12
- CN(CC(=O)Nc1cc(C(F)(F)F)ccc1-n1cncn1)Cc1ccc2ccccc2c1 — 0.66 log units higher, 6.64
- Cc1cc(C2CCN(CCCCNC(=O)c3ccc(NC(=O)c4ccc(Cl)cc4)cc3)CC2)c(C)cc1OCc1ccncc1 — 0.32 log units higher, 6.30
- Cc1[nH]c(C)c(-c2ccc(OCCCc3ccccn3)cc2)c(=O)c1Br — 0.70 log units higher, 6.68
- CCN(CC)CCOC(=O)c1ccc(NC(=O)c2cn(-c3ccccc3)nc2-c2cccs2)cc1 — 0.44 log units higher, 6.42
- CC1=C(C(=O)Nc2ccc(Cl)cc2)C(c2ccncc2)n2nc(C(F)(F)F)nc2N1 (centres undefined) — within 0.2 log units, 6.03
- C#CCN1CCC2=C(C1)c1c(O)cc(C(C)C(C)CCc3ccc(F)cc3)cc1OC2(C)C (centres undefined) — 0.76 log units higher, 6.74
- CCOc1ccc(C(=O)Nc2cc(Cl)ccc2O)cc1Cl — within 0.2 log units, 6.15
- Cc1cc2ncn(-c3ccnc(N4CCN(CCCN5CCCC5)CC4)n3)c2cc1C — within 0.2 log units, 6.08
- N=C(N)c1ccc(OCCCCCOc2ccc(C(=N)N)cc2)cc1 — 0.87 log units higher, 6.85
- Cc1nc2ccccc2n1C1C[C@H]2CC[C@@H](C1)N2CCCC1(c2ccccc2)CCN(C(=O)OCc2ccccc2)CC1 (some centres undefined) — within 0.2 log units, 6.00
- Cc1cc(C(=O)NC2CCN(CC3(c4ccccc4)CCCCC3)CC2)on1 — 0.61 log units higher, 6.59
- O=C(Nc1cccc(-c2ccc(-c3nc4ccc(F)cc4[nH]3)s2)c1)c1cccnc1 — 0.23 log units higher, 6.21
- O=C(Nc1nc2cc(S(=O)(=O)NCCCN3CCOCC3)ccc2n1CCCn1ccnc1)c1ccc(Cl)cc1 — within 0.2 log units, 6.03
- Oc1ccc(CCNc2nc(NCc3ccc4cc(Cl)ccc4c3)nc(N3CCNCC3)n2)cc1 — within 0.2 log units, 5.99
- COc1ccc(CNCCc2cccs2)cc1-c1ccc(S(=O)(=O)NCCN2CCCC2)s1 — within 0.2 log units, 6.06
- CC(Cc1ccc(Cl)cc1)Nc1nc(NC2CCCC2)nc(N2CCC(C#N)(c3ccccc3)CC2)n1 (centres undefined) — within 0.2 log units, 6.15
